{
  "source": "patent US20020198135A1",
  "about": "“Compositions for release of radiosensitizers, and methods of making and using the same” (priority 2000, published 2002)",
  "key": {"[1]": {"test_system": "human cancer cell line JHU 012", "assay": "JHU 012 human cancer cell line tumor in the anterior floor of the mouth of nude mice, intratumoral injection", "assay_type": "in vivo, immunocompromised (nude) mice", "conditions": "intratumoral injection ten days after cell injection, same radiation treatment (as appropriate); measured at approximately twenty days after injection", "protocol": "In another in vivo experiment, 1×10^7 cells from the human cancer cell line JHU 012 were injected into the anterior floor of the mouth of immunocompromised (nude) mice. Ten days following injection, animals were anesthetized, tumors measured, intumoral injections of the same compositions identified above were completed followed by the same radiation treatment (as appropriate). At approximately twenty days after injection, animals sacrificed and tumors measured. The following approximate tumor sizes (mm^3) were observed: no treatment, 750; radiation alone, 300; empty microspheres, 500; 47% IUdR microspheres (1.175 mg IUdR in injection volume of 50 ul), 425; empty rods, 250; 33% IUdR rods, 350; and direct intrumoral injection of IUdR (0.065 mg to 0.12 mg in injection volume of 50 ul), 100."}, "U251 xenograft": {"test_system": "U251 xenograft", "assay": "U251 xenograft model, IUdR polymer paste with continuous ULDR and fractionated HDR", "assay_type": "in vivo, mice", "conditions": "IUdR via 16.7% P(trans-CHDM/HOP) paste, ULDR 0.03 Gy/hr for 72 hr, FIG. 25", "protocol": "To test the effect of protracted exposure sensitization, a 137-Cs source was mounted a fixed distance above the cages of animals bearing xenografts for whole body continuous ULDR (as defined below). […] For purposes of this experiment, ULDR=0.03 Gy/hr for 72 hr started 24 hours after xenograft transplantation, and HDR=2 Gy twice a day for 4 days, started immediately after ULDR, which is 4 days after implantation."}},
  "data": [
    {"smiles": "O=c1[nH]c(=O)n([C@H]2C[C@H](O)[C@@H](CO)O2)cc1I", "note": "[IUdR, 5-iododeoxyuridine]", "values": [
      {"measurement": "approximate tumor size", "setting": "[1]", "value": "~100", "unit": "mm^3"},
      {"measurement": "xenograft growth delay, combination of IUdR and ULDR compared with ULDR plus HDR", "setting": "U251 xenograft", "value": "more potent than the combination of IUdR and ULDR"},
      {"measurement": "xenograft growth, combination of IUdR, ULDR and HDR", "setting": "U251 xenograft; HDR 2 Gy twice a day for 4 days", "value": "tumor regression"}
    ]}
  ]
}
